For 18 molecules, IC50 results are on record in patent US8552024B2, “Azacyclic compounds” (Hoffman-La Roche Inc., priority 2011, dated 2013).

The assay deals with T1, human HSL (Homo sapiens, UniProt Q05469).
T1 construct: overlapping PCR to generate a full length human HSL ORF with a 3′-His6 tag; made in house; host or cells: High 5 insect cells (baculovirus, pFast-BAC)
T1 sequence (Q05469 1-1076): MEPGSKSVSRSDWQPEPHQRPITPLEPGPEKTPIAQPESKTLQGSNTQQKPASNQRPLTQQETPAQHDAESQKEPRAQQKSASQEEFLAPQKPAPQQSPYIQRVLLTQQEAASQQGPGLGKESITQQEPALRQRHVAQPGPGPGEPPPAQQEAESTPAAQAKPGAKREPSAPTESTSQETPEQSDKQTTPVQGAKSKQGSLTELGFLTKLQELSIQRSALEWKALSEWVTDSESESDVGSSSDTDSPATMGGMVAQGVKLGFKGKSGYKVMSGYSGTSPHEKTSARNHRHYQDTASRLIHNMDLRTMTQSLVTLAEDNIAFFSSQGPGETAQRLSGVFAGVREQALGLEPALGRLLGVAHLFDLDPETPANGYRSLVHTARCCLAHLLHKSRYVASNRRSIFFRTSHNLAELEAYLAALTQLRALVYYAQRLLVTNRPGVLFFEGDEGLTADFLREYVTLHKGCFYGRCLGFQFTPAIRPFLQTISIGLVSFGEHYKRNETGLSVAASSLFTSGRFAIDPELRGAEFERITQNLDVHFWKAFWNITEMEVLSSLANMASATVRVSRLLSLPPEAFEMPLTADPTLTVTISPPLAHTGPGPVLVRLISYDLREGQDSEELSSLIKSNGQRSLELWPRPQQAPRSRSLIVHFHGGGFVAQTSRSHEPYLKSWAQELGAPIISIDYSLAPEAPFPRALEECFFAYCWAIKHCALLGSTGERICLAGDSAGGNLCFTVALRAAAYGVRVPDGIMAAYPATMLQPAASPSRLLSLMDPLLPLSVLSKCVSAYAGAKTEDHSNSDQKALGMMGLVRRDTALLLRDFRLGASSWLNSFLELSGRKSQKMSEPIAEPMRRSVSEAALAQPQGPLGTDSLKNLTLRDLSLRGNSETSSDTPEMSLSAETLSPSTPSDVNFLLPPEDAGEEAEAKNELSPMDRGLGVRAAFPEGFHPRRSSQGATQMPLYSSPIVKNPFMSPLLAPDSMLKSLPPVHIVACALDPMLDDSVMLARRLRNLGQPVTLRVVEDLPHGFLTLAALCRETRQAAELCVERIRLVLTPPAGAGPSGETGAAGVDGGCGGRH
Nature of the assay: Human Hormone-Sensitive Lipase (HSL) enzyme inhibition assay (colorimetric, DMPT substrate). The assay is classed as biochemical. To be noted: human full length HSL-His6; substrate 2,3-dimercapto-1-propanol tributyrate; 37° C., 20 minutes; absorbance at 405 nm; read-out: HSL hum IC50. How it is done:
Production of Human full length Hormone Sensitive Lipase-His^6:
1) Cloning: cDNA was prepared from commercial human brain polyA+ RNA and used as a template in overlapping PCR to generate a full length human HSL ORF with a 3′-His6 tag. This full length insert was cloned into the pFast-BAC vector and the DNA-sequence of several single clones was verified. DNA from a correct full length clone with the 3′His6 tag was used to transform the E. coli strain DH10BAC. Resulting bacmid DNA was used to generate a titered baculovirus stock for protein generation. The sequence of the encoded HSL conforms to Swissprot entry Q05469, with the additional C-terminal His6-tag. 2) Protein purification: Culture: 5.5 L, High 5 cells expressing human full length HSL-His^6, 48 hr., containing 25 μM E-64. Cell count: 1.78×10^10 cells/ml, 90% viable. Cells were thawed. On ice, cells were suspended in Base Buffer containing 10% glycerol, 25 mM Tris-Cl, 300 mM NaCl, 10 mM imidazole, 10 mM 2-mercaptoethanol, 2 μg pepstatin/ml, 2 μg leupeptin/ml, 2 μg antipain/ml, pH 8.0 at 4° C. in a final volume of 475 ml with 3.75×10^7 cells/ml. […] was done at 3×30 sec., Lubrol PX was added to 0.2% final concentration followed by stirring for 15 min. at 4° C. and centrifugation at 25 k×g, 60 min., 4° C. Soluble proteins were mixed with 60 ml of pre-washed and equilibrated Ni-NTA Agarose (Qiagen 30210) followed by tumbling end-over-end, 45 min., 4° C., centrifugation 1000 rpm 5 min and letting resin settle 5 min. Supernatant was removed, the resin washed in the centrifuge vessel using 5 volumes of Base Buffer containing 0.2% Lubrol PX. Centrifugation was done again, then the supernatant discarded. The resin was poured onto a 0.8 μm membrane in a disposable filter unit (Nalge 450-0080), and washed with 5 volumes of Base Buffer containing 0.2% Lubrol PX. It was then washed with 30 volumes of Base Buffer containing 60 mM imidazole pH 7.5 at 4° C. The protein was eluated with 5 volumes of 25 mM Tris-Cl, 300 mM NaCl, 200 mM imidazole, 10 mM 2-mercaptoethanol, pH 7.5 at 4° C. by tumbling resin with buffer end-over-end, 30 min., 4° C. The resin was captured on a 0.2 μm membrane disposable filter unit (Millipore SCGP U02 RE) and the eluate collected in the reservoir. The eluate was concentrated using a 30 k MWCO centrifugal filter device (Sartorius Vivascience Vivacell 100, VC1022), to 20 ml. It was then dialyzed overnight at 4° C., two times against 2 L of 10% glycerol, 25 mM Tris-Cl, 300 mM NaCl, 0.2 mM EDTA, 0.2 mM DTT, pH 7.5 at 4° C. The protein was filtered using a 0.22 μm disposable filter unit (Millipore SCGP00525). The protein concentration was calculated from absorbance at 280 nm, using 280=0.67 cm-1 mg-1. Yield was 235 mg, total. The protein was stored at −80° C.
Human Hormone-Sensitive Lipase (HSL) Enzyme Inhibition Assay:
HSL enzyme activity was measured by a colorimetric assay using 2,3-dimercapto-1-propanol tributyrate (Aldrich, St. Louis, Mo.) as a substrate. Typically, 1.5 mM 2,3-dimercapto-1-propanol tributyrate (DMPT) in 100 mM MOPS, pH 7.2, 0.2 mg/ml fatty acid-free BSA was prepared by sonication at 4° C. to homogenous suspension. Test compounds (2 mM stock in DMSO) were diluted 3 fold in series in DMSO. Compound solutions were diluted 24 fold in 1.5 mM DMPT containing solution and 18 ul per well was added to 384-well microplates (Corning Costar). Twelve microliters per well of human HSL (15 ug/ml) was added and the reaction mixture was incubated at 37° C. for 20 minutes. Six microliters of 12 mM dithio-bis-(2-nitrobenzoic acid) (DTNB) in DMSO plus 1.2% SDS and 0.6% Triton X-100 were added and the mixture was incubated at room temperature for 15 minutes. Product production was monitored by reading absorbance at 405 nm on an Envision Reader (PerkinElmer Life and Analytical Sciences, Shelton, Conn.).

Regarding `O=C1N(c2ccc(OC(F)(F)F)cc2)CCC12CCN(c1ccccc1F)CC2` [Example 3, 8-(2-Fluoro-phenyl)-2-(4-trifluoromethoxy-phenyl)-2,8-diaza-spiro[4.5]decan-1-one], the IC50 is 310 nM.

In the case of `COc1ncccc1N1CCC2(CC1)CCN(c1ccc(OC(F)(F)F)cc1)C2=O` [Example 9, 8-(2-Methoxy-pyridin-3-yl)-2-(4-trifluoromethoxy-phenyl)-2,8-diaza-spiro[4.5]decan-1-one], the half-inhibitory concentration (IC50) turned out to be 110 nM.

On to `COc1ccccc1N1CCC2(CC1)CCN(c1ccc(OC(F)(F)F)cc1)C2=O` [Example 7, 8-(2-Methoxy-phenyl)-2-(4-trifluoromethoxy-phenyl)-2,8-diaza-spiro[4.5]decan-1-one], for which the half-maximal inhibitory concentration (IC50) came out at 110 nM.

On to `C[C@H](Oc1ccc(N2CCC3(CCN(c4cccn(C)c4=O)CC3)C2=O)cc1)C(F)(F)F` [Example 18, 8-(1-Methyl-2-oxo-1,2-dihydro-pyridin-3-yl)-2-[4-((S)-2,2,2-trifluoro-1-methyl-ethoxy)-phenyl]-2,8-diaza-spiro[4.5]decan-1-one], for which the IC50 was 20 nM.

`O=C1N(c2ccc(OC(F)(F)F)cc2)CCC12CCN(c1cccc(OC(F)(F)F)c1)CC2` [Example 4, 8-(3-Trifluoromethoxy-phenyl)-2-(4-trifluoromethoxy-phenyl)-2,8-diaza-spiro[4.5]decan-1-one]: the IC50 was 630 nM.

As for `O=C1N(c2ccc(OC(F)(F)F)cc2)CCC12CCN(c1ccc(C(F)(F)F)cc1F)CC2` [Example 1, 8-(2-Fluoro-4-trifluoromethyl-phenyl)-2-(4-trifluoromethoxy-phenyl)-2,8-diaza-spiro[4.5]decan-1-one], the IC50 is 920 nM.

Take `Cn1cccc(N2CCC3(CC2)CCN(c2ccc(OC(F)(F)F)cc2)C3=O)c1=O` [Example 11, 8-(1-methyl-2-oxo-1,2-dihydropyridin-3-yl)-2-(4-(trifluoromethoxy)phenyl)-2,8-diazaspiro[4.5]decan-1-one]: the IC50 came to 20 nM.

For `COc1ccc(C)cc1N1CCC2(CC1)CCN(c1ccc(OC(F)(F)F)cc1)C2=O` [Example 8, 8-(2-Methoxy-5-methyl-phenyl)-2-(4-trifluoromethoxy-phenyl)-2,8-diaza-spiro[4.5]decan-1-one], the IC50 was determined as 100 nM.

Consider `O=C1N(c2ccc(OC(F)(F)F)cc2)CCC12CCN(c1ccccc1Cl)CC2` [Example 5, 8-(2-Chloro-phenyl)-2-(4-trifluoromethoxy-phenyl)-2,8-diaza-spiro[4.5]decan-1-one], for which the IC50 was found to be 710 nM.

Consider `Cc1cnc(F)c(N2CCC3(CC2)CCN(c2ccc(OC(F)(F)F)cc2)C3=O)c1` [Example 10, 8-(2-fluoro-5-methylpyridin-3-yl)-2-(4-(trifluoromethoxy)phenyl)-2,8-diazaspiro[4.5]decan-1-one], for which the concentration for half-maximal inhibition (IC50) amounted to 240 nM.

As for `CCCn1cccc(N2CCC3(CC2)CCN(c2ccc(OC(F)(F)F)cc2)C3=O)c1=O` [Example 12, 8-(2-Oxo-1-propyl-1,2-dihydro-pyridin-3-yl)-2-(4-trifluoromethoxy-phenyl)-2,8-diaza-spiro[4.5]decan-1-one], the IC50 was 30 nM.

Turning to `O=C1N(c2ccc(OC(F)(F)F)cc2)CCC12CCN(c1cccc(O)n1)CC2` [Example 17, 8-(6-Hydroxy-pyridin-2-yl)-2-(4-trifluoromethoxy-phenyl)-2,8-diaza-spiro[4.5]decan-1-one], the concentration for half-maximal inhibition (IC50) came out at 250 nM.

Consider `O=C1N(c2ccc(OC(F)(F)F)cc2)CCC12CCN(c1c(F)cccc1F)CC2` [Example 6, 8-(2,6-Difluoro-phenyl)-2-(4-trifluoromethoxy-phenyl)-2,8-diaza-spiro[4.5]decan-1-one], for which the half-maximal inhibitory concentration (IC50) amounted to 960 nM.

`O=C1N(c2ccc(OC(F)(F)F)cc2)CCC12CCN(c1cccnc1O)CC2` [Example 15, 8-(2-Hydroxy-pyridin-3-yl)-2-(4-trifluoromethoxy-phenyl)-2,8-diaza-spiro[4.5]decan-1-one]: the IC50 turned out to be 40 nM.

Regarding `Cc1ccc(O)c(N2CCC3(CC2)CCN(c2ccc(OC(F)(F)F)cc2)C3=O)c1` [Example 14, 8-(2-Hydroxy-5-methyl-phenyl)-2-(4-trifluoromethoxy-phenyl)-2,8-diaza-spiro[4.5]decan-1-one], the half-inhibitory concentration (IC50) was determined as 60 nM.

`O=C1N(c2ccc(OC(F)(F)F)cc2)CCC12CCN(c1ccccc1O)CC2` [Example 13, 8-(2-Hydroxy-phenyl)-2-(4-trifluoromethoxy-phenyl)-2,8-diaza-spiro[4.5]decan-1-one]: the IC50 was determined as 50 nM.

`O=C1N(c2ccc(OC(F)(F)F)cc2)CCC12CCN(c1cc(C(F)(F)F)ccc1F)CC2` [Example 2, 8-(2-Fluoro-5-trifluoromethyl-phenyl)-2-(4-trifluoromethoxy-phenyl)-2,8-diaza-spiro[4.5]decan-1-one]: the IC50 came to 550 nM.

For `O=C1N(c2ccc(OC(F)(F)F)cc2)CCC12CCN(c1cccc(OCc3ccccc3)n1)CC2` [Example 16, 8-(6-Benzyloxy-pyridin-2-yl)-2-(4-trifluoromethoxy-phenyl)-2,8-diaza-spiro[4.5]decan-1-one], the IC50 worked out at 900 nM.
